Data published in patent US20130197089A1, “COMPOSITIONS FOR THE TREATMENT OF ACTINIC KERATOSIS” (DOLORGIET GMBH & CO. KG, priority 2012, published 2013).

Experiments:
[1] = cited from earlier work
[2] = system: actinic keratosis lesions; assay: Preliminary study: 5% ibuprofen gel vs 3% diclofenac gel in patients with actinic keratosis; settings: for Development of new lesions during treatment: 90 days of treatment; for Investigator global improvement index (IGII): scale -2 to +4; for Average number of lesions at the start of the study: baseline; for Average number of lesions (total): all areas; for Severity of the lesions (BSI score): during the 90 days of treatment
Procedure: The study was performed according to the relevant criteria and was approved by the ethics commission of the dermatological society of Slovakia.
(§1) The application frequency was twice a day. The success of the treatment was evaluated after 30, 60 and 90 days.
(§2) When included in the study, the severity of the lesions was evaluated according to the so-called BSI (baseline severity index) score from 0 to 3. Patients having a BSI score of 1 and 2 were exclusively included in the study.
BSI score (baseline severity index score 1-3) • 0=no actinic keratosis (AK) visible • 1=clearly visible lesion • 2=many small, moderately thick lesions or a few large scaly lesions visible • 3=many thick hypertrophic lesions that are clearly visible and palpable with clear bounds.
(§3) The main target parameters within the scope of effectiveness were the total number of lesions in the treatment area and the IGII (investigator global improvement index) score from −2 to +4. From round 1, the evaluations were always done in comparison with the preliminary round.
(§4) IGII (investigator global improvement index) • −2 significant worsening • −1 slight worsening • 0 unchanged • 1 slight improvement • 2 improvement • 3 significant improvement • 4 complete healing
The IGII was measured between each two rounds.

[3] = system: actinic keratosis lesions; assay: Second study: 10% ibuprofen gel vs 3% diclofenac gel in patients with actinic keratosis; settings: for Investigator global improvement index (IGII) / Average IGII at the end of the treatment time: scale -2 to +4; for Average number of lesions at the start of the study: baseline; for Average IGII at the end of the treatment time: all areas
Procedure: as §1, §2, §3, §4
The design of the study was the same as that of the first study.

[4] = 5% ibuprofen gel or 3% diclofenac gel
[5] = Face, 90 days, 5% ibuprofen gel or 3% diclofenac gel twice a day
[6] = Face, 5% ibuprofen gel or 3% diclofenac gel
[7] = Forehead, 90 days, 5% ibuprofen gel or 3% diclofenac gel twice a day
[8] = Forehead, V0 (start of the study)
[9] = Forehead, 5% ibuprofen gel or 3% diclofenac gel twice a day, 12 patients per group
[10] = Hands, 90 days, 5% ibuprofen gel or 3% diclofenac gel twice a day
[11] = Hands, 5% ibuprofen gel or 3% diclofenac gel
[12] = Scalp, 90 days, 5% ibuprofen gel or 3% diclofenac gel twice a day
[13] = Scalp, 5% ibuprofen gel or 3% diclofenac gel
[14] = after 90 days of treatment, 5% ibuprofen gel or 3% diclofenac gel twice a day
[15] = start of study, 5% ibuprofen gel or 3% diclofenac gel
[16] = Face, 90 days, 10% ibuprofen gel or 3% diclofenac gel
[17] = Face, 10% ibuprofen gel or 3% diclofenac gel
[18] = Forehead, 90 days, 10% ibuprofen gel or 3% diclofenac gel
[19] = Forehead, 10% ibuprofen gel or 3% diclofenac gel, 6 patients per group
[20] = Hands, 90 days, 10% ibuprofen gel or 3% diclofenac gel
[21] = Hands, 10% ibuprofen gel or 3% diclofenac gel
[22] = 90 days, 10% ibuprofen gel or 3% diclofenac gel
[23] = beginning of the treatment, 10% ibuprofen gel or 3% diclofenac gel
[24] = end of the 90 days of treatment, 10% ibuprofen gel or 3% diclofenac gel

For `CC(C)Cc1ccc(C(C)C(=O)O)cc1` (stereo not drawn) [Ibuprofen, ibuprofen], the “Plasma level necessary for a general systemic effect” value ([1]; systemic effect) is given as no less than 10000 ng/mL, the “Plasma level reached in topical application” value ([1]; topical application) is given as “about 2 μg/ml” and the “Development of new lesions during treatment” value [2, 4] is given as “None of the patients developed new lesions”. For the same compound, the “Average number of lesions after 90 days of treatment” value (“Average number … of treatment” below) [2, 5] was 4.8, the “Investigator global improvement index (IGII)” value ([2]; Face, V0 (start of the study)) was 0 and the “Investigator global improvement index (IGII)” value ([2]; Face, V3 (after 90 days of treatment), 5% ibuprofen gel or 3% diclofenac gel) was 1.38. For the same compound, the “Average number of lesions at the start of the study” value (shortened to “Average number … of the study”) [2, 6] was 5.7, the “Average number … of treatment” value [2, 7] was 4 and the “Investigator global improvement index (IGII)” value [2, 8] was 0. For the same compound, the “Investigator global improvement index (IGII)” value ([2]; Forehead, V3 (after 90 days of treatment), 5% ibuprofen gel or 3% diclofenac gel) was 1.33, the “Average number … of the study” value [2, 9] was 4.6 and the “Investigator global improvement index (IGII)” value ([2]; Hand, V0 (start of the study)) was 0. For the same compound, the “Investigator global improvement index (IGII)” value ([2]; Hand, V3 (after 90 days of treatment), 5% ibuprofen gel or 3% diclofenac gel) was 1, the “Average number … of treatment” value [2, 10] was 16.9 and the “Average number … of the study” value [2, 11] was 18.5. For the same compound, the “Average number … of treatment” value [2, 12] was 6, the “Investigator global improvement index (IGII)” value ([2]; Scalp, V0 (start of the study)) was 0 and the “Investigator global improvement index (IGII)” value ([2]; Scalp, V3 (after 90 days of treatment), 5% ibuprofen gel or 3% diclofenac gel) was 1. For the same compound, the “Average number … of the study” value [2, 13] was 6.3, the “Average number of lesions (total)” value [2, 14] was 31.7 and the “Average number of lesions (total)” value [2, 15] was 35.1. For the same compound, the “Severity of the lesions (BSI score)” value [2, 4] was “remained virtually unchanged”, the “Tolerability of the therapy” value ([2]; human, in vivo) was “well tolerated” and the Undesirable side effects ([2]; human, in vivo) was “No undesirable side effects”. The “Therapeutic result in treating slight and moderate keratosis lesions (in words)” value ([3]; 10% ibuprofen gel or 3% diclofenac gel, 90 days) was “pronounced effectiveness”, the “Average number … of treatment” value [3, 16] was 0.7 and the “Investigator global improvement index (IGII)” value ([3]; Face, V0 (start of the study)) was 0. The “Investigator global improvement index (IGII)” value ([3]; Face, V3 (after 90 days of treatment), 10% ibuprofen gel or 3% diclofenac gel) was 3.7, the “Average number … of the study” value [3, 17] was 5.2 and the “Average number … of treatment” value [3, 18] was 0.3. The “Investigator global improvement index (IGII)” value [3, 8] was 0, the “Investigator global improvement index (IGII)” value ([3]; Forehead, V3 (after 90 days of treatment), 10% ibuprofen gel or 3% diclofenac gel) was 3.8 and the “Average number … of the study” value [3, 19] was 3.3. The “Investigator global improvement index (IGII)” value ([3]; Hand, V0 (start of the study)) was 0, the “Investigator global improvement index (IGII)” value ([3]; Hand, V3 (after 90 days of treatment), 10% ibuprofen gel or 3% diclofenac gel) was 3.6 and the “Average number … of treatment” value [3, 20] was 2.7. For the same compound, the “Average number … of the study” value [3, 21] was 9.5, the “Average IGII at the end of the treatment time” value [3, 22] was 3.7 and the “Total number of lesions” value [3, 23] was 18. For the same compound, the “Total number of lesions” value [3, 24] was 3.7, the “Patients completely freed from the optically visible lesions” value ([3]; end of the 90 days of treatment, 10% ibuprofen gel, six patients in group) was “three” and the Tolerability ([3]; human, in vivo) was “very good”.
With `O=C(O)Cc1ccccc1Nc1c(Cl)cccc1Cl` [Diclofenac, diclofenac] the “Development of new lesions during treatment” value [2, 4] was “None of the patients developed new lesions”, the “Average number … of treatment” value [2, 5] was 5.5 and the “Average number … of the study” value [2, 6] was 7. The “Average number … of treatment” value [2, 7] was 5.3, the “Average number … of the study” value [2, 9] was 7.1 and the “Average number … of treatment” value [2, 10] was 17.1. For the same compound, the “Average number … of the study” value [2, 11] was 18.1, the “Average number … of treatment” value [2, 12] was 11.5 and the “Average number … of the study” value [2, 13] was 15.8. The “Average number of lesions (total)” value [2, 14] was 39.4, the “Average number of lesions (total)” value [2, 15] was 48 and the “Severity of the lesions (BSI score)” value [2, 4] was “remained virtually unchanged”. For the same compound, the Undesirable side effects ([2]; during the study, topical 5% ibuprofen gel or 3% diclofenac gel twice a day, 90 days) was “No undesirable side effects”, the “Tolerability of the therapy” value ([2]; topical 5% ibuprofen gel or 3% diclofenac gel twice a day, 90 days) was “well tolerated” and the Tolerability ([3]; 10% ibuprofen gel or 3% diclofenac gel, 90 days topical) was “very good”. For the same compound, the “Average number … of treatment” value [3, 16] was 6.2, the “Average number … of the study” value [3, 17] was 12.3 and the “Average number … of treatment” value [3, 18] was 4.2. The “Average number … of the study” value [3, 19] was 7.5, the “Average number … of treatment” value [3, 20] was 8.8 and the “Average number … of the study” value [3, 21] was 17. The “Average IGII at the end of the treatment time” value [3, 22] was 2.29, the “Total number of lesions” value [3, 23] was 36.8 and the “Total number of lesions” value [3, 24] was 19.2.
